Legend:
PC-3 cells = test: Time-dependent uptake of [99mTc]Tc-DB15 in PC-3 cells; format: cell-based, human
Method: (§1) 2.5. Time-Dependent Uptake of [^99mTc]Tc-DB15 in PC-3 and T-47D Cells
(§2) One day before the experiment, PC-3 or T-47D cells were seeded in 6-well plates (≈1 × 10^6 cells per well). Next day, the cells were rinsed with ice-cold internalization medium (IM, RPMI-1640 GlutaMAX-I, supplemented by 1% (v/v) FBS). […] [^99mTc]Tc-DB15 (250 fmol total peptide in 150 µL 0.5% BSA-PBS) was added in all wells and the plates were incubated at for 15 min, 30 min, 1 h and 2 h at 37 °C in an Incubator-Orbital Shaker unit (MPM Instr. SrI, Bernareggio, MI, Italy). Cells were then placed on ice, the medium was collected, and the plates were rinsed with 0.5% BSA-PBS (1 mL). Membrane-bound fractions were collected after treatment in acid-wash solution (2 × 600 µL; 50 mM glycine buffer pH 2.8, 0.1 M NaCl). Internalized fractions were collected after treatment with 1 N NaOH (2 × 600 µL), as previously described. After counting of radioactivity of all collected fractions in the gamma counter, the percentage of specific internalized and membrane-bound fractions per time point were calculated with Microsoft Excel and the respective curves were drawn. Specific internalized and membrane-bound counts were determined by subtracting the respective non-specific from the respective total counts. Results represent specific internalized ±SD of total added radioactivity per well from three experiments performed in triplicate.

T-47D cells = test: Time-dependent uptake of [99mTc]Tc-DB15 in T-47D cells; format: cell-based, human
Method: as §1, §2

BC patients = conditions: two advanced BC patients, imaging 15 min-24 h pi
Method: Two BC patients were tested for the potential of pathological lesion detection after injection of [^99mTc]Tc-DB15.
A single dose of [^99mTc]Tc-DB15 (5-mL, 700–800 MBq corresponding to 20 μg DB15) was administered as a slow intravenous (iv) injection over 1 min. Vital signs (pulse rate, systolic and diastolic BP) were measured prior to the injection of [^99mTc]DB15 as well as within 15 min pi. Likewise, ECGs were performed prior to the injection, continuously during the injection and for 15 min pi. ECG and vital signs were measured again after the last scan was completed and blood tests for hematology and biochemistry (glucose, creatinine, bilirubin, transaminases, sodium, potassium, calcium) were performed. The laboratory evaluation was repeated 7, 14 and 28 days after imaging. Adverse events (AEs) were assessed and graded according to National Cancer Institute Common Toxicity Criteria for Adverse Events (CTCAE) Version 3.0.
Gamma camera imaging was performed on a Symbia Intevo Bold dual-head SPECT/CT scanner (Siemens Healthineers AG; Erlangen, Germany) equipped with a 16-slice CT scanner. Planar imaging of the whole body and SPECT/CT images of the thorax were obtained 15 min, 1 h, 3 h, and 24 h pi. Planar and SPECT/CT images were inspected for increased uptake by two experienced nuclear medicine specialists.

human GRPR = target: T1, human GRPR (Homo sapiens, UniProt P30550); test: Competition binding assay, displacement of [125I]I-[Tyr4]BBN from PC-3 cell membranes; conditions: PC-3 cell membrane homogenates, 1 h at 22 °C, pH 7.4, mean ± SD of three experiments in triplicate, read-out: IC50, binding affinity for the human GRPR
T1 construct: displacement of the [^125I]I-[Tyr^4]BBN radioligand from freshly harvested PC-3 cell membranes; host or cells: PC-3 human prostate adenocarcinoma cells (membrane homogenate)
T1 sequence (P30550 whole entry): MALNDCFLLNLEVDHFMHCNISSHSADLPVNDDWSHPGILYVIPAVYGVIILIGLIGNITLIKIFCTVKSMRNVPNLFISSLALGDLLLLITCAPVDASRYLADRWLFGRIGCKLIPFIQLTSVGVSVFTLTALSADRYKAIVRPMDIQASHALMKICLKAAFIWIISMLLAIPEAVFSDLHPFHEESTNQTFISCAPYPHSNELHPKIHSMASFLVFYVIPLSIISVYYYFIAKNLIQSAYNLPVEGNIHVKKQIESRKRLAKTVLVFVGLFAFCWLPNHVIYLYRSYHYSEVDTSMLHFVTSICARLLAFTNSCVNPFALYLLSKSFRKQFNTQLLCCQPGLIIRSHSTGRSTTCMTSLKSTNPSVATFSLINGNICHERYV
Method: 2.4. Competition Binding Assays in PC-3 Cell-Membranes
Rapid filtration through glass fiber filters (Whatman GF/B, presoaked in binding buffer for at least 1 h) on a Brandel Cell Harvester (Adi Hassel Ingenieur Büro, Munich, Germany) and rinsing with ice-cold washing buffer (10 mM HEPES pH 7.4, 150 mM NaCl) followed. Filter radioactivity was measured in a gamma counter (automated multi-sample well-type instrument with a NaI(Tl) 3” crystal, Canberra Packard Cobra^TM Quantum U5003/1, Auto-Gamma® counting system). […] Values are expressed as mean ± standard deviation (SD) of three experiments performed in triplicate.

[1] = 30 min incubation, 37 °C, 250 fmol total peptide, mean ± SD, three experiments in triplicate
[2] = all time points (15 min-2 h), results not shown

Compound	portion found within the cells (internalized) (PC-3 cells; 37 °C)	specific cell uptake (cell-associated fraction of total added activity) (PC-3 cells; [1])	cell association in the presence of 1 μM [Tyr4]BBN (PC-3 cells; [2])	portion found within the cells (internalized) (T-47D cells; 37 °C)	specific cell uptake (cell-associated fraction of total added activity) (T-47D cells; [1])	cell association in the presence of 1 μM [Tyr4]BBN (T-47D cells; [2])	Pathological findings on planar and SPECT/CT images (BC patients)	IC50 (human GRPR)
[^99mTc]Tc-N4-AMA-DGA-DPhe^6,Sar^11,LeuNHEt^13]BBN(6-13) [[^99mTc]Tc-DB15]	< 6%	13.1 ± 0.1%	< 0.9%	< 6%	24.2 ± 0.7%	< 0.9%	increased uptake of [^99mTc]Tc-DB15 in the BC metastases in both patients	–
CCNC(=O)[C@H](CC(C)C)NC(=O)[C@H](Cc1c[nH]cn1)NC(=O)CN(C)C(=O)[C@@H](NC(=O)[C@H](C)NC(=O)[C@H](Cc1c[nH]c2ccccc12)NC(=O)[C@H](CCC(N)=O)NC(=O)[C@@H](Cc1ccccc1)NC(=O)COCC(=O)Nc1ccc(CNC(=O)C(CNCCN)CNCCN)cc1)C(C)C [DB15, N4-AMA-DGA-DPhe^6,Sar^11,LeuNHEt^13]BBN(6-13)]	–	–	–	–	–	–	–	370 ± 30 pM

Reference: publication PMC8533986, “[^99mTc]Tc-DB15 in GRPR-Targeted Tumor Imaging with SPECT: From Preclinical Evaluation to the First Clinical Outcomes” (Cancers, 2021)
